Results: patent US20020006920A1, “Arylsulfonylamino hydroxamic acid derivatives” (priority 1999, published 2002)

SMILES | melting point
O=C(NO)C1(NS(=O)(=O)c2ccc(Oc3ccc(F)cc3)cc2)CCCCC1 [Example 4, 1-[4-(4-Fluorophenoxy)benzenesulfonylamino]cyclohexane-1-carboxylic acid hydroxyamide] | 174 °C
O=C(NO)C1(NS(=O)(=O)c2ccc(Oc3ccc(F)cc3)cc2)CC1 [Example 5, 1-[4-(4-Fluorophenoxy)benzenesulfonylamino]cyclopropane-1-carboxylic acid hydroxyamide] | 184 °C
COc1ccc(S(=O)(=O)NC(C)(C)C(=O)NO)cc1 [Example 9, N-Hydroxy-2-(4-methoxybenzenesulfonylamino)-2-methylpropionamide] | 122 to 125 °C
CC(C)CCOc1ccc(S(=O)(=O)NC(C)(C)C(=O)NO)cc1 [Example 11, N-Hydroxy-2-methyl-2-[4-(3-methylbutoxy)benzenesulfonylamino]-propionamide] | 126.5 to 128 °C
CC(C)(NS(=O)(=O)c1ccc(OCCC2CCCC2)cc1)C(=O)NO [Example 12, 2-[4-(2-Cyclopentylethoxy)benzenesulfonylamino]-N-hydroxy-2-methyl-propionamide] | 126 to 127 °C
CC(C)(NS(=O)(=O)c1ccc(-c2ccccn2)s1)C(=O)NO [Example 13, N-Hydroxy-2-methyl-2-(5-pyridin-2-ylthiophene-2-sulfonylamino)propionamide] | 165 to 166 °C
